Reference: patent US20240182526A1, “COMPOSITIONS AND METHODS FOR MODULTING INFLAMMATORY AND DEGENERATIVE DISORDER” (University of Southern California, priority 2021, published 2024)
“Also recorded” adds a separate entry of the source.

How the values were obtained:
[1] = test system: rat medial meniscal tear model; test: Rat medial meniscal tear model of osteoarthritis; assay type: in vivo; conditions: 6 weeks post-surgery
Description: Immunohistochemistry. Histological staining for was performed on wild type (WT) mice, F814 mice and all mice that underwent destabilization of the medial meniscus (DMM). Six weeks after surgery, mice were sacrificed and joints were fixed in 10% formalin, decalcified in 10% EDTA and embedded in paraffin. For rat model, 6 weeks after partial medial meniscectomy (PMM), rats were sacrificed and joints were fixed in 10% formalin, decalcified in 10% EDTA and embedded in paraffin. A total of three 8 μm thick sections were made at a 200 μm interval by coronal sectioning. For canine model, 4 and 16 weeks after medial meniscal release (MMR), dogs were sacrificed and joints were fixed in 10% formalin, decalcified in 10% EDTA and embedded in paraffin. No animals were excluded from analysis. A microtome (Leica) was used to cut 5-μm sections for joints. H&E staining was performed to assess morphology. Safranin O/Fast Green staining, immunohistochemistry for proteolytic enzymes and Osteoarthritis Research Society International (OARSI) scoring was performed as described (41, 42). For OARSI scoring, observers performing the analysis were blinded as whether the slides were from treated or control animals. The stained samples were visually observed using LSCM (Zeiss LSM710, Carl Zeiss, Germany).
Rat model of osteoarthritis. All experiments were conducted ethically. […]

gp130 and pSRC = test: Co-immunoprecipitation of complex formation between gp130 and pSRC in pig articular chondrocytes; assay type: cell-based; conditions: pig articular chondrocytes with or without OSM, 4 and 24 hours
Description: IP Western, SDS-PAGE and Western blot analysis. For transfections of gp130 wild type (WT) (InVivoGen) and gp130 mutant plasmids (Thermo Scientific), cells were plated 24 h prior to transfection to produce monolayers that were 60% confluent and these were transfected by using Turbo DNAfectin 3000 (cat #G3000, Lambda Biotech) according to the manufacturer's protocol. 72h after transfection, cells were maintained in DMEM (10% FBS, 1% PSA) and were either left untreated or were stimulated with IL-6 (10 ng/mL) and/or OSM (10 ng/mL) for 24 h before cell harvest and protein extraction. For immunoprecipitation assays, cell lysates were incubated with Protein G Agarose (cat #20398, Pierce) and anti-Flag antibody (cat #2368, Cell Signaling) at 4° C. overnight. The immune complexes were sedimented, washed and separated by SDS-PAGE (see below) and further analyzed by Western blot using p-SRC (pY416-SRC) (cat #1246F, Novus Biologicals) or NEMO (cat #18474-1-AP, Proteintech) antibodies and normalized to gp130 (cat #bs-1459R, Bioss) or total SRC (cat #2123, Cell Signaling). For R805 treatment, the immune complexes were sedimented, washed and separated by SDS-PAGE and further analyzed by Western blot using OSMR (cat #ab85575, Abcam), LIFR (Santa cat #515337, Cruz Biotechnology) or p-SRC (pY416-SRC) (Novus Biologicals, cat #1246F). Histone H3 (cat #9715, Cell Signaling), gp130 (cat #bs-1459R, Bioss), total SRC (cat #2123, Cell Signaling) or Flag antibody (cat #14739, Cell Signaling) were used as loading controls.
The studies delineate that gp130 Y814 regulates SRC downstream signaling; since SRC is known to associate with gp130, it was hypothesized that gp130 and SRC are capable of physically interacting on Y814 and hindering this interaction will prevent SRC from signaling. In order to impede this interaction, experiments were performed using an innovative peptide library screen with short and overlapping peptides mimicking the motif of gp130 around Y814 that were individually tested for pSRC downregulation; these peptides ranged from 4-15 amino acids. The peptides contained a protein sequence stretch of consecutive amino acids surrounding gp130 Y814 residue. To test their efficacy, pig articular chondrocytes were stimulated with or without OSM in presence or absence of the peptides followed by co-immunoprecipitation to determine interaction and western blot detecting pSRC activity. […] Due to sequence specificity, the peptide is capable of discriminating among other gp130 regions serving as a competitive inhibitor.

[2] = test system: cleaved ACAN and COL2 neoepitopes; test: Neoepitope assay on pig articular cartilage explants stimulated with OSM; assay type: cell-based; conditions: 72 hours, normalized to wet weight
Description: Neoepitope analysis. WT and F814 mouse articular cartilage explants were treated with or without OSM (10 ng/mL). Pig articular cartilage explants were stimulated with or without OSM (10 ng/mL) and treated with or without peptide QQpYF (100 μg/mL or 300 μg/mL). For R805 treatment, pig articular cartilage explants were stimulated with or without OSM (10 ng/mL) and treated with or without R805 (0.01, 0.1, 1 or 10 μM). The explants were then digested for 2 hr at 37° C. with 0.01 units chondroitinase ABC (Sigma Aldrich, St. Louis, MO). Samples were then dialyzed with ultrapure water for 24 hr at 4° C., freeze dried, dissolved in RIPA Lysis and Extraction Buffer (Pierce, IL) containing protease inhibitors (Pierce) followed by sonication. Proteins were separated and analyzed by Western blot using primary antibodies against aggrecan (cat #NB100-74350, Novus Biologicals,) and collagen II neoepitopes (cat #50-1035, Ibex). Wet weight of explants was used as loading control.

SMILES: Cc1ccc(-c2csc(NC(=O)c3ccccn3)n2)cc1 [Peptide R805]
- cartilage thickness and stiffness (indentation mapping) ([1]; femoral condyle): maintained thickness and reduced stiffness in rat cartilage
- cartilage degeneration (Safranin O histology) ([1]; weekly intra-articular injection): dramatically reduces the appearance of OA in rat and canine models; also recorded: prominent protective effects; also recorded: reduces cartilage degeneration
- complex formation between gp130 and pSRC (gp130-SRC interaction) (gp130 and pSRC): able to prevent endogenous interaction of SRC with gp130; also recorded: prevents SRC binding to gp130
- matrix degeneration: levels of cleaved ACAN and COL2 neoepitopes [2]: able to decrease; also recorded: protective effect on OSM-induced cartilage degeneration in vitro
